Test results reported in patent publication US10738028B2, “Spiro three-membered ring, spiro five-membered ring peptide deformylase inhibitor and use thereof in antibacteria and anti-tumor” (priority 2016, dated 2020).

Key:
Type in all cases: cell-based
[1] = system: Enterococcus faecalis (EFA); assay: MIC, two-fold agar dilution (CLSI), clinical isolates
In short: (§1)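 Susceptibility was tested using CLSI two-fold agar dilution against the strains examined.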

[2] = system: Enterococcus faecium (EFM); assay: as above
In short: as §1

[3] = system: Escherichia coli (including ESBLs, non-ESBLs); assay: as above
In short: as §1

[4] = system: Moraxella catarrhalis (BCA); assay: as above
In short: as §1

[5] = system: Streptococcus pneoumoniae (SPN); assay: as above
In short: as §1

[6] = system: methicillin-resistant Staphylococcus aureus (MRSA); assay: as above
In short: as §1

[7] = system: methicillin-resistant Staphylococcus epidermidis (MRSE); assay: as above
In short: as §1

[8] = system: methicillin-sensitive Staphylococcus aureus (MSSA); assay: as above
In short: as §1

[9] = system: methicillin-sensitive Staphylococcus epidermidis (MSSE); assay: as above
In short: as §1

[10] = system: HCT-116 colorectal cancer cell line; assay: CCK-8 proliferation inhibition; conditions: 72 hours, CCK-8
In short: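 Cells were plated overnight at 2000 cells/well, then compound in culture medium was added at a range of final concentrations. After 72 hours in a CO2 incubator, medium was replaced with 1:10 CCK-8 solution for the read-out.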

[11] = system: A549 lung cancer cell line; assay: CCK-8 proliferation inhibition
In short: (§2)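 Plating at 2000 cells/well, then incubation overnight at 37° C. Next, a range of compound concentrations for 72 hours (control 1‰ DMSO). Finally, medium decanted and CCK-8 diluted 1:10 added.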

[12] = system: BEL-7402 liver cancer cell line; assay: CCK-8 proliferation inhibition
In short: as §2

[13] = system: HL60 acute myeloid leukemia cell line; assay: CCK-8 proliferation inhibition; conditions: Homo sapiens, HL-60, 72 hours
In short: as §2

[14] = system: Hela cervical cancer cell line; assay: CCK-8 proliferation inhibition; conditions: Homo sapiens, 72 hours
In short: as §2

[15] = system: Jurkat T cell leukemia cell line; assay: CCK-8 proliferation inhibition; conditions: Homo sapiens, 72 hours
In short: (§3)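 Proliferation was measured with 1:10 diluted CCK-8 after a 72-hour incubation with the inhibitors at various final concentrations, using 1‰ DMSO as the control. Cells were plated at 2000 per well. Culture media contained 10% newborn bovine serum: 1640 for Jurkat and MGC-803, F12 for PC3, DMEM high glucose for MCF-7.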

[16] = system: MCF-7 breast cancer cell line; assay: CCK-8 proliferation inhibition; conditions: Homo sapiens, MCF7, 72 hours
In short: as §3

[17] = system: MGC-803 gastric cancer cell line; assay: CCK-8 proliferation inhibition
In short: as §3

[18] = system: PC3 prostate cancer cell line; assay: CCK-8 proliferation inhibition; conditions: 72 hours
In short: as §3

[19] = system: SAOS-2 osteosarcoma cell line; assay: CCK-8 proliferation inhibition; conditions: Homo sapiens, 72 hours, read-out: IC50 Steosarcoma SAOS-2
In short: as §3

[20] = MIC in vitro anti-bacterial experiments, Gram-positive bacteria; conditions: lowest MIC reached; read-out: minimum inhibitory concentration against Gram-positive bacteria
In short: as §1

[21] = concentration of 30 μM, 72 hours, 30 µM

Structure (SMILES): O=C(C[C@@H](CC1CCCC1)C(=O)N1CC2(CC2)C[C@H]1C(=O)Nc1ccc(F)cn1)NO [Example 64]
- Anti-bacterial activity (MIC), strain EFA 15-1 ([1]; clinical isolate EFA 15-1): 32 µg/mL
- Anti-bacterial activity (MIC), strain EFA 15-2 ([1]; clinical isolate EFA 15-2): 32 µg/mL
- Anti-bacterial activity (MIC), strain EFA 15-3 ([1]; clinical isolate EFA 15-3): 32 µg/mL
- Anti-bacterial activity (MIC), strain EFA 15-4 ([1]; clinical isolate EFA 15-4): 32 µg/mL
- Anti-bacterial activity (MIC), strain EFA 15-5 ([1]; clinical isolate EFA 15-5): 32 µg/mL
- Anti-bacterial activity (MIC), strain EFA 15-6 ([1]; clinical isolate EFA 15-6): 32 µg/mL
- Anti-bacterial activity (MIC), strain EFA 15-9 ([1]; clinical isolate EFA 15-9): 4 µg/mL
- Anti-bacterial activity (MIC), strain EFM 15-1 ([2]; clinical isolate EFM 15-1): 32 µg/mL
- Anti-bacterial activity (MIC), strain EFM 15-2 ([2]; clinical isolate EFM 15-2): 32 µg/mL
- Anti-bacterial activity (MIC), strain EFM 15-3 ([2]; clinical isolate EFM 15-3): 32 µg/mL
- Anti-bacterial activity (MIC), strain EFM 15-4 ([2]; clinical isolate EFM 15-4): 1 µg/mL
- Anti-bacterial activity (MIC), strain EFM 15-5 ([2]; clinical isolate EFM 15-5): 1 µg/mL
- Anti-bacterial activity (MIC), strain EFM 15-6 ([2]; clinical isolate EFM 15-6): 1 µg/mL
- Anti-bacterial activity (MIC), strain ECO+ 15-1 ([3]; clinical isolate ECO+ 15-1): 16 µg/mL
- Anti-bacterial activity (MIC), strain ECO+ 15-2 ([3]; clinical isolate ECO+ 15-2): 32 µg/mL
- Anti-bacterial activity (MIC), strain ECO+ 15-3 ([3]; clinical isolate ECO+ 15-3): 16 µg/mL
- Anti-bacterial activity (MIC), strain ECO+ 15-4 ([3]; clinical isolate ECO+ 15-4): 16 µg/mL
- Anti-bacterial activity (MIC), strain ECO− 15-1 ([3]; clinical isolate ECO− 15-1): 16 µg/mL
- Anti-bacterial activity (MIC), strain ECO− 15-2 ([3]; clinical isolate ECO− 15-2): 16 µg/mL
- Anti-bacterial activity (MIC), strain ECO− 15-3 ([3]; clinical isolate ECO− 15-3): 32 µg/mL
- Anti-bacterial activity (MIC), strain ECO− 15-4 ([3]; clinical isolate ECO− 15-4): 16 µg/mL
- Anti-bacterial activity (MIC), strain BCA 14-1 ([4]; clinical isolate BCA 14-1): 0.25 µg/mL
- Anti-bacterial activity (MIC), strain BCA 14-4 ([4]; clinical isolate BCA 14-4): 1 µg/mL
- Anti-bacterial activity (MIC), strain BCA 14-5 ([4]; clinical isolate BCA 14-5): 1 µg/mL
- Anti-bacterial activity (MIC), strain BCA 14-6 ([4]; clinical isolate BCA 14-6): 1 µg/mL
- Anti-bacterial activity (MIC), strain BCA 14-7 ([4]; clinical isolate BCA 14-7): 1 µg/mL
- Anti-bacterial activity (MIC), strain BCA 14-8 ([4]; clinical isolate BCA 14-8): 0.125 µg/mL
- Anti-bacterial activity (MIC), strain BCA 14-10 ([4]; clinical isolate BCA 14-10): 0.125 µg/mL
- Anti-bacterial activity (MIC), strain SPN 16-2 ([5]; clinical isolate SPN 16-2): 0.125 µg/mL
- Anti-bacterial activity (MIC), strain SPN 16-4 ([5]; clinical isolate SPN 16-4): 0.125 µg/mL
- Anti-bacterial activity (MIC), strain MRSA 15-1 ([6]; clinical isolate MRSA 15-1): 0.03 µg/mL
- Anti-bacterial activity (MIC), strain MRSA 15-2 ([6]; clinical isolate MRSA 15-2): 0.06 µg/mL
- Anti-bacterial activity (MIC), strain MRSA 15-3 ([6]; clinical isolate MRSA 15-3): 0.03 µg/mL
- Anti-bacterial activity (MIC), strain MRSA 15-4 ([6]; clinical isolate MRSA 15-4): 0.06 µg/mL
- Anti-bacterial activity (MIC), strain MRSE 15-1 ([7]; clinical isolate MRSE 15-1): 0.06 µg/mL
- Anti-bacterial activity (MIC), strain MRSE 15-2 ([7]; clinical isolate MRSE 15-2): 0.06 µg/mL
- Anti-bacterial activity (MIC), strain MRSE 15-3 ([7]; clinical isolate MRSE 15-3): 0.06 µg/mL
- Anti-bacterial activity (MIC), strain MRSE 15-7 ([7]; clinical isolate MRSE 15-7): 0.06 µg/mL
- Anti-bacterial activity (MIC), strain MSSA 15-3 ([8]; clinical isolate MSSA 15-3): 0.06 µg/mL
- Anti-bacterial activity (MIC), strain MSSA 15-4 ([8]; clinical isolate MSSA 15-4): 0.03 µg/mL
- Anti-bacterial activity (MIC), strain MSSA 15-5 ([8]; clinical isolate MSSA 15-5): 0.03 µg/mL
- Anti-bacterial activity (MIC), strain MSSA 15-6 ([8]; clinical isolate MSSA 15-6): 16 µg/mL
- Anti-bacterial activity (MIC), strain MSSE 15-3 ([9]; clinical isolate MSSE 15-3): 0.03 µg/mL
- Anti-bacterial activity (MIC), strain MSSE 15-4 ([9]; clinical isolate MSSE 15-4): 0.06 µg/mL
- Anti-bacterial activity (MIC), strain MSSE 15-5 ([9]; clinical isolate MSSE 15-5): 0.06 µg/mL
- Anti-bacterial activity (MIC), strain MSSE 15-6 ([9]; clinical isolate MSSE 15-6): > 0.008 µg/mL
- IC50 ([10]; Homo sapiens, HCT-116): 4.88 µM
- HCT116 inhibition rate/% ([10]; concentration of 30 μM, 30 µM): 87%
- inhibition at 30 µM ([11]; Homo sapiens, A549, 72 h, concentration of 30 μM): > 50%
- IC50 ([11]; Homo sapiens, A549, 72 hours): 4.86 µM
- Inhibition of proliferation, Lung cancer A549 [11, 21]: 61%
- IC50 ([12]; Homo sapiens, Bel-7402, 72 hours): 5 µM
- Inhibition of proliferation, Liver cancer BEL-7402 [12, 21]: 81%
- IC50 [13]: 1.21 µM
- IC50 [14]: 11.5 µM
- IC50 [15]: 7.61 µM
- IC50 [16]: 6.62 µM
- inhibition at 30 µM ([17]; Homo sapiens, MGC-803, 72 h, concentration of 30 μM): > 50%
- IC50 ([17]; Homo sapiens, MGC-803, 72 hours): 6.11 µM
- Inhibition of proliferation, Gastric cancer MGC-803 [17, 21]: 63%
- IC50 [18]: 6.17 µM
- IC50 [19]: 2 µM
- MIC [20]: < 0.008 µg/mL
